Patent US20180111991A1, “MODULATORS OF ACTIVIN AND METHODS FOR MODULATING IMMUNE RESPONSES AND T FOLLICULAR HELPER CELLS” (LA JOLLA INSTITUTE FOR ALLERGY AND IMMUNOLOGY, priority 2014, published 2018)
Entries after “also recorded” stand apart in the source; their conditions may differ.

Legend:
Assay type in all cases: cell-based
human naïve CD4 T cells [1] = experiment: Screening of secretomics recombinant proteins for Tfh marker induction; settings: secretomics protein screen, anti-CD3/CD28 beads, 5 days, automated FACS
Protocol: FIG. 1A-D: Inhibin beta A (INHBA) emerged from the screen as potent regulator of human Tfh differentiation. (A) Schematic of primary screen. Purified human naïve CD4 T cells from a leukapheresis donor were stimulated by anti-CD3/CD28 beads on 384 well plates on day 0. The GNF secretomics recombinant proteins were added at the beginning of the stimulation. Each secretomics protein was tested in duplicate. After 5 days of in vitro culture, cells were evaluated by automated FACS analysis for the expression of Tfh signature markers, including CXCR5 and PD-1. (B) Primary screen results. Relative enrichment of PD-1^+CXCR5^+ cell induction is reported as Z score for each recombinant protein. INHBA gene product is shown in red. (C) CXCR5 and PD-1 expression from repeat experiment in which INHBA gene product was tested again for its capacity to induce Tfh-like differentiation. (D) Confocal microscopy of INHBA expression in human tonsils. Tonsil sections were stained with anti-INHBA (red) anti-BCL6 (blue) and anti-CD3 (green) Abs. An overlay from one donor representative of six is shown on the left panel. […]
Naïve CD4^+ T cells were isolated from leukapheresis-derived mononuclear cells via CliniMACS negative selection (Miltenyi Biotec). […] Induction of CXCR5 and PD-1 was assessed after 5 days of in vitro culture using automated FACS acquisition via HTS on LSR Fortessa (BD Biosciences). For each 384 well plate, mean and standard deviation of PD-1^+CXCR5^+ cell frequency induced by each individual recombinant proteins was determined and used to calculate the Z score. Z scores of replicate plates were analyzed independently.
To discover novel regulators of human Tfh cell differentiation, we performed an unbiased high throughput screen of a human extracellular proteome library consisting of over 2000 human proteins predicted or known to be cytokines, chemokines, morphogens, costimulatory receptors, or single pass transmembrane molecules^19. […] Following 5 days, expression of the Tfh signature markers CXCR5 and PD-1 were measured on the cells by flow cytometry, in an automated fashion. […]

human naïve CD4 T cells [2] = experiment: In vitro Tfh differentiation, PD-1 and CXCR5 expression by FACS
Protocol: (§1) For surface staining, primary-staining panels used for phenotypic analysis or for cell sorting known in the art were used. For the intranuclear staining: cells were treated with the FoxP3 Fixation/Permeabilization kit (eBioscience) and stained in Permeabilization buffer (eBioscience). For cytokine staining: day 3 or day 5 in vitro differentiated cells (specified in the main text or in figure legends) cells were stimulated for 5 hours at 37° C. with Phorbol 12-myristate 13-acetate (PMA, 25 ng/ml) and Ionomycin (1 μg/ml) in the presence of Brefeldin A (5 μg/ml). Cells were fixed with PBS 2% FBS, 1% PFA and permeabilized with PBS 2% FBS, 0.5% Saponin (from quillaja bark, Sigma-Aldrich). Samples were analyzed on a LSR Fortessa Cell Analyzer (BD, Bioscience). Flow cytometry data were analyzed with FlowJo (Tree Star). For cell sorting, cells were sorted using sorted using a FACS Aria (BD, Bioscience).
Unless differently specified, naïve CD4^+ T cells were enriched from PBMCs by magnetic bead negative selection with the Naïve CD4^+ T Cell Isolation Kit (Stem Cell Technologies). Purity (CD4^+CD45RA^+) was 90% or higher. Cells (7.5×10^4 cells/well) were activated by Dynabeads Human T-Activator CD3/CD28 (2 μl/well, Life Technologies) and cultured with recombinant human/mouse/rat activin A (50 ng/ml or 100 ng/ml), recombinant human IL-12 (5 ng/ml), recombinant human TGFβ (1 ng/ml), recombinant human IL-23 (10 ng/ml) or recombinant human IL-35 (10 ng/ml) in the presence of and recombinant human IL-7 (4 ng/ml) in AIM-V medium (Life Technologies). All cytokines were from R&D System and Peprotech. The 14 kDa mature human beta A chain of human activin A shares 100% amino acid sequence identity with bovine, feline, mouse, porcine, and rat beta A. Phenotype was quantified after 3 or 5 days, as specified in the main text of Figure legends. Similar results were obtained when using Treg-depleted FACS sorted naïve CD4 T cells, in which cells were sorted from total PBMCs by flow cytometry as CD19^−CD8^−CD14^−CD16^− CD4^+CD45RO^−CD25^− cells. For experiments quantifying supernatant CXCL13 concentration, cells were activated by plate-bound anti-human CD3 (5 μg/ml, BD) and ICOS-L (5 μg/ml, recombinant human B7-H2, R&D). CXCL13 concentrations were determined via human CXCL13 DuoSet ELISA (R&D) on supernatants harvested after 5 days of in vitro culture. For blocking experiments, cells were cultured with anti-activin A blocking mAb (5 μg/ml, clone 69403, R&D), anti-TGFβ mAb (100 μg/ml, clone 1D11.16.8, BioXcell), or equivalent concentration of mouse IgG1 isotype mAb (BioXcell). For blockade of IL-2, cells were cultured with anti-IL-2 blocking mAb (10 μg/ml, clone 5334, R&D) or mouse IgG1 isotype mAb (BioXcell).

human naïve CD4 T cells [3] = experiment: FoxP3 induction by FACS in in vitro differentiated cells; settings: for FoxP3 expression (FoxP3+ cells): with or without IL-12, day 5
Protocol: as §1
Unless differently specified, naïve CD4^+ T cells were enriched from PBMCs by magnetic bead negative selection with the Naïve CD4^+ T Cell Isolation Kit (Stem Cell Technologies). Purity (CD4^+CD45RA^+) was 90% or higher. […] The 14 kDa mature human beta A chain of human activin A shares 100% amino acid sequence identity with bovine, feline, mouse, porcine, and rat beta A. Phenotype was quantified after 3 or 5 days, as specified in the main text of Figure legends. […] For experiments quantifying supernatant CXCL13 concentration, cells were activated by plate-bound anti-human CD3 (5 μg/ml, BD) and ICOS-L (5 μg/ml, recombinant human B7-H2, R&D). CXCL13 concentrations were determined via human CXCL13 DuoSet ELISA (R&D) on supernatants harvested after 5 days of in vitro culture. […]

[4] = activin A alone, anti CD3/CD28 coated beads

Substance	induction of CXCR5 and PD-1 expression (PD-1+CXCR5+ cells) (human naïve CD4 T cells [1])	CXCR5 expression (human naïve CD4 T cells [2]; [4])	PD-1 induction (human naïve CD4 T cells [2]; [4])	PD-1 and CXCR5 expression (PD1+CXCR5+ cells), additive or synergistic effect (human naïve CD4 T cells [2]; activin A combined with TGFβ)	retention of CXCR5 and PD-1 expression over time (human naïve CD4 T cells [2]; activin A in combination with IL-12, monitored 0-10 days)	capacity to regulate differentiation of PD-1+CXCR5+ cells, TGFβ compared with activin A (human naïve CD4 T cells [2]; combined with IL-12)	coexpression of PD-1 and CXCR5 (PD-1+CXCR5+ cells) (human naïve CD4 T cells [2]; in combination with IL-12)	PD-1 and CXCR5 expression on activated naïve CD4 T cells (human naïve CD4 T cells [2]; serum free conditions, activin A titration)	FoxP3 upregulation (FoxP3+CXCR5+ cells) (human naïve CD4 T cells [3]; activin A with recombinant TGFβ)	FoxP3 expression (FoxP3+ cells) (human naïve CD4 T cells [3])	induction of CXCR5 and PD-1 expression (human naïve CD4 T cells [2]; TGFβ with IL-12, serum free media)
activin A: commercial recombinant cytokine, homodimer of the INHBA gene product (inhibin beta A)	potent regulator of the human Tfh gene program; also recorded: top hit in the screen	some CXCR5 expression	massive PD-1 induction	no synergy between TGFβ and activin A; also recorded: neither PD-1 nor CXCR5 expression changed when activin A and TGFβ were combined	retained	induced similar levels of CXCR5 and PD-1 expression compared to TGFβ	dramatic increase in the coexpression of PD-1 and CXCR5; also recorded: synergistic effect with IL-12	induces both PD-1 and CXCR5 expression on activated naïve CD4 T cells in a dose dependent fashion	synergize in inducing FoxP3 upregulation	but not activin A was found to induce high FoxP3 expression; also recorded: less potent than TGFβ in driving the generation of FoxP3^+ cells; also recorded: induced less FoxP3 expression	
TGFβ	regulator T cell differentiation									induce high FoxP3 expression; also recorded: preferentially induces FoxP3	can synergize with IL-12 to induce CXCR5 and PD-1 expression
